In patent US20130337564A1, “Treatment of Pluripotent Cells” (Janssen Biotech, Inc., priority 2012, published 2013):

Assays:
Assay type in all cases: cell-based
[1] = tested on: human embryonic stem cells (H9 or H1 lines); test: Plate reader (MTS) proliferation assay; settings: for Average: average of replicate raw data; for activity at 10 µM: Homo sapiens, Embryonic stem cell, 96 h, 10 μM test compound with 100 ng/ml activin A on days 1-2, MTS OD490 on day 4, vs Activin A/Wnt3a positive control, strong and moderate hits
How it was run: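 H9 or H1 cells on Matrigel, washed, then given DMEM:F12 with 0.5% FCS, 100 ng/ml activin A and 10 μM compound (days 1–2), then 2% FCS plus activin A (days 3–4). MTS added day 4, OD490 read after 1.5–4 h at 37 °C; triplicates as percent of activin A/Wnt3a control.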

[2] = tested on: human embryonic stem cells (H9 line); test: High content screening assay: cell number (proliferative response); settings: for fold induction at 10 µM: Homo sapiens, Embryonic stem cell, 10 μM test compound with 100 ng/ml activin A on days 1-2, H9, total cell number by IN Cell Analyzer, strong and moderate hits, read-out: Proliferative Response, Fold over Wnt 3a/AA control
How it was run: (§1)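 H9 hESCs on MATRIGEL treated days 1-2 with 10 μM compound in DMEM:F12, 0.5% FCS, 100 ng/ml activin A; days 3-4 with 2% FCS plus activin A without compound. Fixed cells immunostained for Sox17 or HNF-3beta with Draq5 nuclear counterstain. Cell number and staining intensity quantified by high-content imaging, 12 fields/well.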

[3] = tested on: HNF-3beta expression in human embryonic stem cells (H9 line); test: High content screening assay: HNF-3beta protein expression (differentiation); settings: for fold induction at 10 µM: Homo sapiens, Embryonic stem cell, 10 μM test compound with 100 ng/ml activin A on days 1-2, H9, total intensity by IN Cell Analyzer, strong and moderate hits, read-out: HNF3β Expression, Fold over Wnt 3a/AA control
How it was run: as §1

[4] = tested on: Sox17 expression in human embryonic stem cells (H9 line); test: High content screening assay: Sox17 protein expression (differentiation); settings: for fold induction at 10 µM: Homo sapiens, Embryonic stem cell, 10 μM test compound with 100 ng/ml activin A on days 1-2, H9, total intensity by IN Cell Analyzer, strong and moderate hits, read-out: SOX17 Expression, Fold over Wnt 3a/AA control
How it was run: as §1

[5] = cell number in the wells analysed for HNF-3b expression
[6] = cell number in the wells analysed for SOX-17 expression

SMILES | Average [1] | Proliferative Response Total cells [2, 5] | Proliferative Response Total cells [2, 6] | HNF-3b Expression Total Intensity [3] | SOX-17 Expression Total Intensity [4] | fold induction at 10 µM [2] | fold induction at 10 µM [3] | fold induction at 10 µM [4] | activity at 10 µM [1] [%] | Average (of Raw Data) ([1]; plate reader raw signal, mean of replicate wells, proliferation of human embryonic stem cells)
O=C1NC(=O)C(c2cn(CCCO)c3ncccc23)=C1c1cn(CCO)cn1 [Compound 183, 3-[1-(2-Hydroxyethyl)-1H-imidazol-4-yl]-4-[1-(3-hydroxypropyl)-1H-pyrrolo[2,3-b]pyridin-3-yl]-1H-pyrrole-2,5-dione] | 0.2321 | 5 | 7 | 170177 | 48154 |  |  |  |  | 
O=C1NC(=O)C(c2cn(CCCO)c3ncccc23)=C1c1ccn(CCCO)n1 [Compound 185, 3-[1-(3-Hydroxypropyl)-1H-pyrazol-3-yl]-4-[1-(3-hydroxypropyl)-1H-pyrrolo[2,3-b]pyridin-3-yl]-1H-pyrrole-2,5-dione] | 0.2632 |  |  |  |  | 0.944 | 0.865 | 0.889 |  | 
CN(CCO)CCCn1nc(C2=C(c3cn(-c4cccnc4)c4ccccc34)C(=O)NC2=O)c2ccccc21 [Compound 198, 3-(1-{3-[(2-Hydroxyethyl)(methyl)amino]propyl}-1H-indazol-3-yl)-4-(1-pyridin-3-yl-1H-indol-3-yl)-1H-pyrrole-2,5-dione] | 1.1253 | 2594 | 2386 | 61161468 | 20866647 |  |  |  | 70.7 | 
O=C1NC(=O)C(c2cn(-c3cccnc3)c3ccccc23)=C1c1cn(CCO)c2ccccc12 [Compound 206, 3-[1-(2-Hydroxyethyl)-1H-indol-3-yl]-4-(1-pyridin-3-yl-1H-indol-3-yl)-1H-pyrrole-2,5-dione] | 1.7251 | 10331 | 11886 | 309900000 | 223646667 | 1.42 | 1.66 | 1.74 | 108 | 
Cn1ccc(C2=C(c3cn(CCCO)c4ncccc34)C(=O)NC2=O)n1 [Compound 209] | 1.0739 | 4209 | 2473 | 143916667 | 80676667 |  | 0.772 | 0.628 | 67.4 | 
COc1ccccc1C1=C(c2cn(-c3cccnc3)c3ccccc23)C(=O)NC1=O [Compound 216, 3-[2-(Methyloxy)phenyl]-4-(1-pyridin-3-yl-1H-indol-3-yl)-1H-pyrrole-2,5-dione] | 1.1235 | 8479 | 5991 | 306520000 | 252690000 |  |  |  | 76.9 | 
Cc1c[nH]c(-c2cnc(NCCNc3ccc(C#N)cn3)nc2-c2ccc(Cl)cc2Cl)n1 [Compound 221, 6-[(2-{[4-(2,4-Dichlorophenyl)-5-(4-methyl-1H-imidazol-2-yl)pyrimidin-2-yl]amino}ethyl)amino]pyridine-3-carbonitrile] | 1.8228 | 21203 | 21070 | 1281000000 | 1089750000 | 1.38 | 1.16 | 1.12 | 131 | 0.4291
CC(C)(O)CCn1nc(C2=C(c3cn(-c4cccnc4)c4ccccc34)C(=O)NC2=O)c2ccccc21 [Compound 223, 3-[1-(3-Hydroxy-3-methylbutyl)-1H-indazol-3-yl]-4-(1-pyridin-3-yl-1H-indol-3-yl)-1H-pyrrole-2,5-dione] | 1.7982 | 9871 | 14529 | 540725000 | 1013360000 | 0.948 |  | 1.04 | 129 | 
O=C1NC(=O)C(c2nn(CCO)c3ccccc23)=C1c1cn(-c2cncnc2)c2ccccc12 [Compound 226, 3-[1-(2-Hydroxyethyl)-1H-indazol-3-yl]-4-(1-pyrimidin-5-yl-1H-indol-3-yl)-1H-pyrrole-2,5-dione] | 1.6825 | 7650 | 9716 | 329425000 | 572520000 | 0.634 |  | 0.589 | 120 | 
O=C1NC(=O)C(c2cn(-c3cncnc3)c3ccccc23)=C1c1cn(CCO)c2ccccc12 [Compound 230, 3-[1-(2-Hydroxyethyl)-1H-indol-3-yl]-4-(1-pyrimidin-5-yl-1H-indol-3-yl)-1H-pyrrole-2,5-dione] | 2.0358 | 16884 | 20079 | 1052345000 | 1104750000 | 1.31 | 0.95 | 1.14 | 147 | 
Cn1cc(C2=C(c3nn(CCCn4ccnc4)c4ccccc34)C(=O)NC2=O)c2cc(Cl)ccc21 [Compound 231, 3-(5-Chloro-1-methyl-1H-indol-3-yl)-4-{1-[3-(1H-imidazol-1-yl)propyl]-1H-indazol-3-yl}-1H-pyrrole-2,5-dione] | 1.6020 | 11369 | 13789 | 547055000 | 789085000 | 0.9 |  | 0.811 | 114 | 
